Here are results for 2 molecules from patent publication US20220323441A1, “THERAPEUTIC FOR GOUT OR HYPERURICEMIA” (Nippon Chemiphar Co., Ltd., priority 2019, published 2022).

Where two headings read alike, the source gives them in different places.

Series [1] can be described thus: Particle size distribution of amorphous Compound 14 (laser diffraction). The class given is physicochemical. To be noted: amorphous Compound 14, spray dried; dispersed in 0.2% Aerosol OT aqueous solution. Here is the method:
A volume average particle size (D50) of the obtained amorphous Compound 14 was measured with a Shimadzu laser diffraction type particle size distribution measuring device SALD-2200 using a dispersion obtained by adding about 2 mg of a sample to a 0.2% Aerosol OT aqueous solution and irradiating the solution with ultrasonic waves for 30 seconds for dispersion. Shimadzu WingSALD-2200 version 1.02 software was used for data collection and analysis. […] The volume average particle size (D50) of amorphous Compound 14 obtained from the particle size distribution was 2.949 μm.

Series [2] concerns serum uric acid level. The experiment in a line: Example 1, action of lowering serum uric acid level in healthy adult males. The class given is in vivo. The text has this:
The effect of gradually lowering the blood uric acid level which is achieved by administering the pharmaceutical composition provided by the present invention may be confirmed, for example, when a maximum rate of decrease in a blood uric acid level on the first day of the administration ([(pre-administration uric acid level−minimum post-administration uric acid level on first day of administration)/pre-administration uric acid level]×100) is about 35% or less (for example, 1 to 35% decrease, 10 to 30% decrease, 10 to 25% decrease, 10 to 20% decrease, or 15 to 25% decrease); and/or the maximum rate of decrease in a blood uric acid level on the seventh day of the administration ([(pre-administration uric acid level−minimum post-administration uric acid level on the seventh day of administration)/pre-administration uric acid level]×100) is about 55% or less (for example, 1 to 55% decrease, 10 to 50% decrease, 15 to 45% decrease, 20 to 45% decrease, 20 to 40% decrease, or 20 to 35% decrease), the maximum rates of decrease being determined by continuously administering the pharmaceutical composition provided by the present invention to a healthy adult (for example, a male) for 7 days and measuring the blood uric acid levels before and after the administration.
The blood uric acid level (blood uric acid concentration) may be measured by a known uricase-peroxidase method.
80 mg of Compound 14 was repeatedly administered to 6 healthy adult males once daily for 7 days using solid dispersion capsules of Formulation Example 1, and the action of lowering a serum uric acid level was examined. For comparative reference, the results are shown in FIG. 9 together with the result of a case described in Non Patent Literature 3 in which febuxostat (40 mg) was used.

Series [3] concerns serum uric acid level. To be noted: febuxostat 40 mg; about 15 hours after the administration; cited from earlier work.

As for `N#Cc1cc(-c2nc3c(O)ncnc3s2)ccc1Oc1ccccc1` [Compound 14, 2-(3-Cyano-4-phenoxyphenyl)-7-hydroxythiazolo[5,4-d]pyrimidine], the “volume average particle size (D50)” value in series [1] is 2.949 μm. Besides, the “course of serum uric acid level throughout the administration period” value with serum uric acid level [2] (20 mg once daily for 7 days, solid dispersion capsules of Formulation Example 1) was “gradually decreased over time”; in the series on serum uric acid level [2] (40 mg once daily for 7 days, capsules containing micronized Compound 14), “gradually decreased over time”; with serum uric acid level [2] (80 mg once daily for 7 days, solid dispersion capsules of Formulation Example 1), “gradually decreased over time”. Further, the “maximum rate of decrease in a blood uric acid level on the seventh day” value with serum uric acid level [2] (80 mg once daily for 7 days, solid dispersion capsules of Formulation Example 1, about 8 hours after the administration) is on record as “about 30%”. In addition, the “maximum rate of decrease in a blood uric acid level on the first day of the administration” value in the series with serum uric acid level [2] (80 mg once daily, solid dispersion capsules of Formulation Example 1, 6 healthy adult males, at 12 hours after the administration) is listed as “about 17%”.
Consider `Cc1nc(-c2ccc(OCC(C)C)c(C#N)c2)sc1C(=O)O` [febuxostat], for which the “maximum rate of decrease in a blood uric acid level on the first day of the administration” value in the series with serum uric acid level [3] is reported as “about 35%”.
